For experiment [1], the system named is TAC rats. Nature of the experiment: TAC-induced cardiac hypertrophy and cardiomyocyte dilation in rats. The conditions noted are these: for cardiac and myocyte hypertrophy: 3-week TAC groups; for increment of cardiomyocyte cross-sectional area: 3-week TAC; for HW / HW/BW: 3 wk TAC. The experiment is classed as in vivo, Wistar rats. The protocol:
TAC between the innominate artery and the left carotid artery was conducted to induce pressure overload for 3 weeks (3-week TAC) or 9 weeks (9-week TAC). Sham control animals underwent the same operation, but without aortic constriction. All surgical procedures were performed with animals anesthetized with 3% pentobarbital sodium injected intraperitoneally (i.p. 40 mg/kg). During the surgery period, rats were intubated and ventilated with a rodent ventilator (Harvard Apparatus, Holliston, Mass., USA).
Both 3-week and 9-week TAC-exposed rats were randomly divided into five groups (n=8-10 rats) including a TAC vehicle control, COMPOUND A, low (TAC+COMPOUND A (L), 1 mg/kg/d), middle (TAC+COMPOUND A (M), 2 mg/kg/d), high (TAC+COMPOUND A (H), 8 mg/kg/d) dose group respectively, and sildenafil (TAC+Sil, 70 mg/kg/d) as a positive control group. Sham controls were all treated with vehicle. Acute and chronic mortality from the TAC procedure was <5%. The treat group was intra-gastric administrated with sodium salt of compound A which was solved in a mixture of saline and organic solvent of the same volume (1:1, 0.5 ml) and sildenafil which was solved in distilled water. All drugs and vehicle treatment were given twice a day after surgery for three days as designed. The animals were examined at 3 weeks and 9 weeks after surgery accordingly. At the end of the observation periods and after hemodynamic measurement in vivo, all animals were sacrificed and hearts were explanted for further Analyses.
Tissue sections of rat hearts were fixed in 10% neutral-buffered formalin, embedded in paraffin, cut into […] serial sections, and then stained with haematoxylin and eosin (H&E), picrosirius red or phalloidin. Nikon system and Zeiss confocal microscope were used to capture digital images. Stained with H&E was to evaluate cell size, stained with picrosirius red (sigma CA) was to test fibrosis using standard procedure and the amount of F-actin was stained with phalloidin. We determined cross sectional cell area and interstitial collagen fraction using computer-assisted image analysis (Image-Pro Plus software), with the observer blinded as to tissue source. At least four or five different hearts were quantified for analysis.
Adult Wistar rats were subjected to TAC for 3 weeks and treated with vehicle, COMPOUND A or sildenafil, respectively. […] The cardiac and myocyte hypertrophy were ameliorated by compound A or sildenafil in the 3-week TAC groups (Table 1).

Experiment [2] deals with TAC rats. As to the kind of experiment: Heart rate variability spectral analysis in TAC rats. The conditions noted are these: TAC for 9 weeks. It is filed as in vivo. On the procedure:
Three or nine weeks after TAC operation, rats were anesthetized with pentobarbital sodium (i.p. 40 mg/kg). The electrocardiogram (ECG) was measured using the II Einthoven lead. Three stainless steel 22G needle electrodes were localized in the insertion of the right (G1) and left (GND) front legs, and in the left (G2) rear leg. Accordingly, 10 min of ECG recordings were digitally acquired at 2 kHz prior to any maneuver. Heart rate variability-Spectral Analysis was performed using fast Fourier transformation. Oscillatory components were separated into very low frequency (VLF; <0.04 Hz), low frequency (LF; 0.04-0.6 Hz), or high frequency (HF; 0.6-2.5 Hz) bands. HRV components were expressed in normalized units (n.u.) as a percentage of total power minus the VLF component. Efferent vagal parasympathetic activity is a major contributor to the HF component and both sympathetic and vagal influences contribute to the LF component; thus the ratio of LF to HF is commonly utilized as a measure of sympathovagal balance. Parameters of the heart rate variability (HRV) are indicators for cardiac autonomic balance. […] This invention disclosed a novel used of compound A for restore cardiac autonomic balance by suppress elevated sympathetic activity, which sildenafil had no such effect.

A further experiment deals with TAC-exposed rats. As to the kind of experiment: ECG alterations induced by TAC. The experiment is classed as in vivo. The conditions noted are these: for QT dispersion and QTc dispersion increase induced by TAC: TAC after 9 weeks; for QRS duration and R amplitude: TAC at 9 weeks.
The test system of experiment [3] is pulmonary hypertension rats. Nature of the experiment: Pressure overload (TAC)-induced pulmonary hypertension, lung histology. It is filed as in vivo, wistar rats. More on the design: Mean vascular wall thickness: unit not given here. The conditions noted are these: for Mean vascular wall thickness: 9 weeks TAC. The protocol: Pressure overloaded-induced pulmonary hypertension was induced by transverse aortic constriction in male wistar rats (200±20 g body weight). Sham operated rats served as controls. […] After 9 weeks, animals were sacrificed and lungs were fixed, paraffin-embedded, sectioned, and stained with hematoxylin and eosin. Blinded stereological Analysis of mean wall thickness and vascular muscularization of lung arterial vessels was performed. Collagen I was verified by immune-fluorescent staining and visualized in confocal.

Setting [4] is: comp. A (L) 1 mg/kg/d intra-gastric.

These results are taken from patent publication US20180214400A1, “THE USE OF KAURANES COMPOUNDS IN THE MANUFACTURE OF MEDICAMENT FOR TREATMENT OF CADIAC HYPERTROPY AND PULMONARY HYPERTENSION” (KEY-PHARMA BIOMEDICAL INC., priority 2015, published 2018).

As to `C[C@@]12CC[C@@H]3[C@@](CC[C@H]4[C@@]3(C)CCC[C@@]4(C)C(=O)O)(CC1=O)C2` [Compound A, (4α,8β,13β)-13-methyl-16-oxo-17-norkauran-18-oic acid], the “cardiac and myocyte hypertrophy” value in the experiment on TAC rats [1] is given as “ameliorated”. Also, the “increment of cardiomyocyte cross-sectional area” value (“increment” for short) in the experiment on TAC rats [1] (1 mg/kg) came to 15.1%. Further, the “increment” value with TAC rats [1] (2 mg/kg) stood at 4.1%. For the same compound, in the experiment on TAC rats [1] (3 weeks TAC rats, dose not stated (TAC alone 76%)), the “increase of cardiomyocyte cross-sectional area comparing to Sham rats” value is 10%. In the experiment on TAC rats [1] (setting [4]), the HW is listed as 0.72 ± 0.03 g and the HW/BW came to 2.862 ± 0.099 mg/g. Moreover, in the experiment on TAC rats [2], the LF/HF ratio entry is “reversed to normal”. For the same compound, in the experiment with TAC-exposed rats, the “QT dispersion and QTc dispersion increase induced by TAC” value is on record as “reversed such effects”; the “QRS duration and R amplitude” value is “trended normal”. In experiment [3] (1 mg/kg + TAC), the Fully muscularization is recorded as 10.20 ± 9.787 %, the Non-muscularization stood at 66.78 ± 5.876 % and the Partially muscularization amounted to 23.00 ± 3.938%. In addition, in experiment [3] (4 mg/kg + TAC), the Fully muscularization is reported as 1.851 ± 3.207^#& %, the Non-muscularization is reported as 81.10 ± 16.60 % and the Partially muscularization worked out at 17.04 ± 18.98%. Besides, in experiment [3] (lung, TAC rats), the “number of non-muscularization vessels” value is recorded as “increased”; the “production of collagen I” value is given as “reduced”; the “vascular remodeling in small and medium arteries” value is “prevented”. Besides, the “fluorescent intensity of collagen I” value in experiment [3] (lung, 1 mg/kg + TAC) worked out at 10.75. Also, the “Mean vascular wall thickness” value in experiment [3] (pulmonary arterioles inner diameter <100 um, 1 mg/kg) was found to be 22.96 ± 7.83. For the same compound, the “Mean vascular wall thickness” value in experiment [3] (pulmonary arterioles inner diameter <100 um, 4 mg/kg) is on record as 17.60 ± 6.28^##&&. Besides, in experiment [3] (pulmonary arterioles inner diameter >100 um, 1 mg/kg), the “Mean vascular wall thickness” value is 16.60 ± 6.00. Also, the “Mean vascular wall thickness” value in experiment [3] (pulmonary arterioles inner diameter >100 um, 4 mg/kg) is given as 10.67 ± 5.01.

With `CCCc1nn(C)c2c(=O)[nH]c(-c3cc(S(=O)(=O)N4CCN(C)CC4)ccc3OCC)nc12` [sildenafil, reference compound], the “cardiac and myocyte hypertrophy” value with TAC rats [1] is listed as “ameliorated”. In addition, the “increment” value with TAC rats [1] (70 mg/kg) was 16.3%. In the experiment with TAC rats [1] (sildenafil 70 mg/kg/d), the HW came out at 0.76 ± 0.04 g and the HW/BW worked out at 2.86 ± 0.117 mg/g. Further, the LF/HF ratio result with TAC rats [2] is reported as “did not reduce”. In addition, in the experiment on TAC-exposed rats, the “QT dispersion and QTc dispersion increase induced by TAC” value is on record as “did not show similar protective effect”; the “QRS duration and R amplitude” value is “trended normal”. Also, in experiment [3] (70 mg/kg + TAC), the Fully muscularization was 23.80 ± 8.247 %, the Non-muscularization came out at 57.57 ± 7.182 % and the Partially muscularization is 18.61 ± 15.09%. Besides, in experiment [3] (lung, 70 mg/kg + TAC), the “fluorescent intensity of collagen I” value came to 7.591. In experiment [3] (pulmonary arterioles inner diameter <100 um, sildenafil), the “Mean vascular wall thickness” value amounted to 24.10 ± 7.48. Also, in experiment [3] (pulmonary arterioles inner diameter >100 um, sildenafil), the “Mean vascular wall thickness” value is on record as 14.88 ± 6.83.
